Assay results published in patent US20090305955A1, “Cyclopeptide with Anti-Cancer Activity Derived from Collagen Type IV” (priority 2006, published 2009).
Where a SMILES comes first, the peptide text is derived from it.

Assays:
HUVEC cells = assay: HUVEC cell proliferation; assay type: cell-based, human
PAI-1 = assay: Western blot of PAI-1 secretion, UACC-903 cells; assay type: cell-based, human; details: cyclopeptide 5 to 20 μM
Description: FIG. 15: Effect of YSNSG (SEQ ID NO: 3) cyclopeptide on secretion of PAI-1 (plasminogen activator inhibitor-1). The secretion of PAI-1 was analyzed by Western Blot (A) in a medium conditioned by UACC-903 cells control in the absence of peptide (negative control, white bar), in cells treated with linear heptapeptide CNYYSNS (SEQ ID NO: 5) (20 μM) (positive control, black bar) or treated with YSNSG (SEQ ID NO: 3) cyclopeptide at a concentration from 5 μM to 20 μM (grey bars). The conditioned medium was recovered, concentrated and analyzed as described in the methods.
The samples underwent 10% polyacrylamide gel electrophoresis in the presence of 0.1% SDS then were transferred onto Immobilon-P membranes (Millipore, St Quentin en Yvelines, France). The membranes were saturated with 5% freeze dried skimmed milk, Tween 20 0.1% in a 50 mM Tris-HCl, 150 mM NaCl buffer, pH 7.5 (TBS) for 2 hours at ambient temperature. The membranes were then incubated overnight at 4° C. with anti-MMP-14, anti-PAI-1 and anti-u-PAR antibodies then incubated for one hour at ambient temperature with a secondary antibody (anti-IgG) conjugated with peroxidase. The immune complexes were visualized with an ECL chemoluminescence detection kit.

Compound: NC(=O)CC1NC(=O)C(CO)NC(=O)C(Cc2ccc(O)cc2)NC(=O)CNC(=O)C(CO)NC1=O (centres unmarked) [cyclopeptide YSNSG, cyclopeptide YSNSG (SEQ ID NO: 3)] (cyclo(GYSNS); configuration not given here)
- cell proliferation of HUVEC cells (HUVEC cells): did not modify
- secretion of PAI-1 (PAI-1): large increase
